The conditions of data set [1]: 101.33 kPa, Liquid, Pycnometric method.
Data set [2] in a line: activity coefficient (dimensionless); of the first substance listed, at infinite dilution; xn = mol fraction of the nth substance listed. To be noted: 101 kPa, Liquid, Chromatography, x1 = 0.

± gives the expanded uncertainty stated by the source.

Take `CCCCCCn1cc[n+](C)c1.O=C([O-])C(F)(F)F` [1-hexyl-3-methylimidazolium trifluoroacetate]: the mass density in data set [1] (293.15 K) is reported as 1153.5 ± 1.1 kg/m3; in data set [1] (303.15 K), 1146.6 ± 1.1 kg/m3; in data set [1] (313.15 K), 1140.7 ± 1.1 kg/m3; in data set [1] (323.15 K) it was 1134.4 ± 1.1 kg/m3; in data set [1] (333.15 K), 1127.8 ± 1.1 kg/m3; in data set [1] (343.15 K), 1121.6 ± 1.1 kg/m3.

For `Brc1ccccc1` [bromobenzene] + CCCCCCn1cc[n+](C)c1.O=C([O-])C(F)(F)F, the activity coefficient in data set [2] (303.15 K) was 2.18 ± 0.23; in data set [2] (313.15 K), 2.2 ± 0.23; in data set [2] (323.15 K) it was 2.24 ± 0.24; in data set [2] (333.15 K) it was 2.29 ± 0.24; in data set [2] (343.15 K), 2.32 ± 0.24; in data set [2] (353.15 K), 2.36 ± 0.25. Besides, the activity coefficient in data set [2] (363.15 K) came to 2.41 ± 0.25.

Regarding `CCc1ccccc1` [ethylbenzene] + CCCCCCn1cc[n+](C)c1.O=C([O-])C(F)(F)F, the activity coefficient in data set [2] (303.15 K) was 4.1 ± 0.43; in data set [2] (313.15 K) it was 4.16 ± 0.44; in data set [2] (323.15 K), 4.22 ± 0.44; in data set [2] (333.15 K), 4.25 ± 0.45; in data set [2] (343.15 K), 4.32 ± 0.45; in data set [2] (353.15 K), 4.34 ± 0.46. In addition, the activity coefficient in data set [2] (363.15 K) was 4.36 ± 0.46.

For orientation: mass density means the mass of a sample divided by its volume.
